The target of experiment [1] is Monoamine transporters; serotonin & dopamine (Homo sapiens) (UniProt P31645+Q01959). The experiment is described as follows: Ratio of IC50 of 5-hydroxy tryptamine to dopamine. The format is protein assay.
Experiment [2] in a line: Ratio of IC50 of norepinephrine to dopamine.
In experiment [3] the target is Norepinephrine transporter (Rattus norvegicus, UniProt Q9WTR4). Put plainly: Binding affinity towards Norepinephrine transporter was determined using NE[3H]Nisoxetine as radioligand.
Sequence of Norepinephrine transporter (Q9WTR4 whole entry): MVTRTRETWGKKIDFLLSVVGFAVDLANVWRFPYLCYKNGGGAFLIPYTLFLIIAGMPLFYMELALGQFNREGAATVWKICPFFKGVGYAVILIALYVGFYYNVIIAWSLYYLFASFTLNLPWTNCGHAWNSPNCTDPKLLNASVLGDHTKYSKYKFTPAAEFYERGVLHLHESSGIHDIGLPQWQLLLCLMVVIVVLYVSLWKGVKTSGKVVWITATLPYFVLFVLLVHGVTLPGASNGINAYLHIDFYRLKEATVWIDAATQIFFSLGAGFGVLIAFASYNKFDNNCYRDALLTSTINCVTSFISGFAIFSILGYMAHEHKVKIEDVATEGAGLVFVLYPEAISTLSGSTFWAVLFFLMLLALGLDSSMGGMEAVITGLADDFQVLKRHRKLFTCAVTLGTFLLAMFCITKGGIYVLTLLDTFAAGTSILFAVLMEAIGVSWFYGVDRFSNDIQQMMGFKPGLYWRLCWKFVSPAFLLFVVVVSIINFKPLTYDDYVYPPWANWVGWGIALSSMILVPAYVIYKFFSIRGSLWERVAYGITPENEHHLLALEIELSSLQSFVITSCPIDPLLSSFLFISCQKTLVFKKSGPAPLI
The target of experiment [4] is Sodium-dependent dopamine transporter (Rattus norvegicus, UniProt P23977). Put plainly: Binding affinity towards dopamine transporter was determined using DA[3H]WIN-35428 as radioligand.
Sequence of Sodium-dependent dopamine transporter (P23977 whole entry): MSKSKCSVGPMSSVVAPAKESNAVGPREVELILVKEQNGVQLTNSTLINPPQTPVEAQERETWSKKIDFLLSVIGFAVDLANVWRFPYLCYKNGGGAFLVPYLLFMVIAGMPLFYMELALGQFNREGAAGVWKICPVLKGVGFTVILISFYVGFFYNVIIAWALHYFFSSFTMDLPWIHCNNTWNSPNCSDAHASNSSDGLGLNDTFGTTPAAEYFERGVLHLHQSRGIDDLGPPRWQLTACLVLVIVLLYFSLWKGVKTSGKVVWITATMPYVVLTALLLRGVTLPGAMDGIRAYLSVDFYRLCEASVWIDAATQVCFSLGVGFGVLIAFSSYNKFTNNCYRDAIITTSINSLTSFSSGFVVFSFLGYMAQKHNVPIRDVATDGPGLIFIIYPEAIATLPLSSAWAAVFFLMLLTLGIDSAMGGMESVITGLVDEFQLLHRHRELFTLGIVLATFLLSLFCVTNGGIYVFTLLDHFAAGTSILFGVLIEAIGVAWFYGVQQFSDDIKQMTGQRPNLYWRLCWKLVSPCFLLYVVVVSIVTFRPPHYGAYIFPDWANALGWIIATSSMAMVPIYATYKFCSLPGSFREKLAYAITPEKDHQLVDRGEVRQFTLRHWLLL
The target in experiment [5] is Sodium-dependent serotonin transporter (Rattus norvegicus, UniProt P31652). The experiment is described as follows: Binding affinity towards Serotonin transporter was determined using 5-HT [3H]paroxetine as radioligand.
Sequence of Sodium-dependent serotonin transporter (P31652 whole entry): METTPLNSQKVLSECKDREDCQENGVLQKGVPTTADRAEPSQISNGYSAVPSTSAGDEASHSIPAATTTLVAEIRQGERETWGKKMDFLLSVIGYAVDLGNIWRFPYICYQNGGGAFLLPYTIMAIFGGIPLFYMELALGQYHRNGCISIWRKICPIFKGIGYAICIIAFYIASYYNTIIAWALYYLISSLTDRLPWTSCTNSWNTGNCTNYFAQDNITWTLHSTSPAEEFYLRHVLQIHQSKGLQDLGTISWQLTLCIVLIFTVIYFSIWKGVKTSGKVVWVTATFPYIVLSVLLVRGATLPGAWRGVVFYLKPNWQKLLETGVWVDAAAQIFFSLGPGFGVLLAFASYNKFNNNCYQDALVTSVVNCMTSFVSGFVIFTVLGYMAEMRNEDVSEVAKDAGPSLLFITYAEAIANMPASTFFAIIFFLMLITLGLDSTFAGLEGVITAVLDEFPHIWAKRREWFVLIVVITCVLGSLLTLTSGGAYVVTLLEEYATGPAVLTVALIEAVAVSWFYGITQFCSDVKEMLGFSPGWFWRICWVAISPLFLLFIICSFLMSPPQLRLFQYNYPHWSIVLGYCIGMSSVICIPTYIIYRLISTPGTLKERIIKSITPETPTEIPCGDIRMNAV

As a reminder, the IC50 is the midpoint of a concentration-inhibition curve. The low end stands for greater potency, the high end for weaker potency.

Sequence of Monoamine transporters; serotonin & dopamine (Homo sapiens) (P31645 whole entry, looked up): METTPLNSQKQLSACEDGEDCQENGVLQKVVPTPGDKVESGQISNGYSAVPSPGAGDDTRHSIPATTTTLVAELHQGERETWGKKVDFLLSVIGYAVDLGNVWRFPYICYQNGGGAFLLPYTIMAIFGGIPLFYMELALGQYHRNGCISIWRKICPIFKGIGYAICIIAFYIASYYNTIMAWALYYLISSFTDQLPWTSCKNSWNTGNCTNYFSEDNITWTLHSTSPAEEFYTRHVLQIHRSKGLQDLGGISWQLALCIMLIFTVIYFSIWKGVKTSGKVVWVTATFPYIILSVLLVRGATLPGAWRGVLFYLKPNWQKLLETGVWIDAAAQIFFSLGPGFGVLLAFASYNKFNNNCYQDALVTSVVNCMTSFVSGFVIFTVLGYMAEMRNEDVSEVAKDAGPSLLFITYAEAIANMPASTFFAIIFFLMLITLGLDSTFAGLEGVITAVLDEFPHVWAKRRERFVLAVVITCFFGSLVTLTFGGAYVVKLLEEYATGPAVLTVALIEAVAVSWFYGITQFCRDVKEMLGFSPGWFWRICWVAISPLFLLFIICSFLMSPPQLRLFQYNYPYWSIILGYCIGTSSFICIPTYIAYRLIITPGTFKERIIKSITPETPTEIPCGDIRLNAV
Sequence of Monoamine transporters; serotonin & dopamine (Homo sapiens) (Q01959 whole entry, looked up): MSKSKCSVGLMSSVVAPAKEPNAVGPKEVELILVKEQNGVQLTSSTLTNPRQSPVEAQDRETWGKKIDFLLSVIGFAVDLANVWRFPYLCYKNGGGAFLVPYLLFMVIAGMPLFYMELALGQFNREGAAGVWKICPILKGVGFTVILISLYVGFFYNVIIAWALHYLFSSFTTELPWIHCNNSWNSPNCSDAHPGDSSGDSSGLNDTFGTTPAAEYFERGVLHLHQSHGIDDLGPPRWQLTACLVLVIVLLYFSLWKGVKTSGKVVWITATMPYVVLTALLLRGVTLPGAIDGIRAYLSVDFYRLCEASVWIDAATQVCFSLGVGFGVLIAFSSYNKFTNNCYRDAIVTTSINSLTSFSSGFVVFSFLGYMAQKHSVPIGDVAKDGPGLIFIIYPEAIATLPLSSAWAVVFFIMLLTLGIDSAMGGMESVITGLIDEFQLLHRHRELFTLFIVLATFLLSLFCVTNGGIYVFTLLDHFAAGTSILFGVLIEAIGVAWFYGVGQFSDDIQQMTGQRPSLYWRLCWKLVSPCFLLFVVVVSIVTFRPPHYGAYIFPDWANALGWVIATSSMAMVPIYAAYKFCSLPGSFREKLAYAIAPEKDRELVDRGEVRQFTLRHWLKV

As for `CN1C2CCC1C(c1ncc(-c3ccccc3)o1)C(c1ccc(Cl)cc1)C2` (centres undefined), the Ratio in experiment [1] is 57; in experiment [2], 25. The results for the 50% inhibitory concentration (IC50) in experiment [3] and in experiment [4] were 496 nM and 19.7 nM, respectively.

In the case of `CN1C2CCC1C(c1nc(-c3ccccc3)no1)C(c1ccc(Cl)cc1)C2` (centres undefined), the Ratio turned out to be 120 in experiment [1] and 151 in experiment [2]. Also, the values for the IC50 in experiment [3] and in experiment [4] were 245 nM and 1.62 nM, respectively.

As for `CN1C2CCC1C(c1nnc(-c3ccccc3)o1)C(c1ccc(Cl)cc1)C2` (centres undefined), the Ratio in experiment [1] amounted to 262; in experiment [2] it was 74. Further, the IC50 was 929 nM in experiment [3] and 12.6 nM in experiment [4].

Turning to `CN1C2CC[C@@H]1C[C@H](c1ccc(Cl)cc1)C2c1cc(-c2ccccc2)no1` (some centres undefined), the Ratio worked out at 1890 in experiment [1] and 394 in experiment [2]. In addition, the 50% inhibitory concentration (IC50) is 2420 nM in experiment [5], 504 nM in experiment [3] and 1.28 nM in experiment [4].

`CN1C2CCC1C(C(=O)Oc1ccccc1)C(c1ccc(Cl)cc1)C2` (centres undefined): the Ratio in experiment [1] worked out at 1180; in experiment [2], 1490.
